Test results: patent publication US8980877B2, “Spirocyclic derivatives as histone deacetylase inhibitors” (DAC S.R.L., priority 2008, dated 2015)

Legend:
[1] = test system: HDAC (nuclear fraction of Hela cells); test: Assay of enzyme inhibition of HDAC (BIOMOL Kit); format: biochemical; conditions: substrate 200 μM, 15 min at RT, fluorescence
Experimental: The in-vitro activity of HDAC inhibitors was assayed using a BIOMOL Kit, according to the instructions from the manufacturer (Biomolecular Research Laborator). 15 μl of 30× diluted nuclear fraction of Hela cells, was diluted to 50 μl with the assay buffer containing the HDAC inhibitor and the substrate (lysine with acetylated amino group on the side chain) at a concentration of 200 μM. The samples were incubated for 15 min at RT and then exposed to a developer (10 min at RT). In this last step a fluorophore was produced, whose fluorescence was measured using an excitation wavelength of 355 nm and an emission at 460 nm. The IC50 was calculated using GraphPad Software.

K562 cells = test: Cell growth, CellTiter-Glo Luminescent Cell Viability Assay, K562; format: cell-based; conditions: Homo sapiens, 72 h incubation, read-out: K562 (antiproliferative assay IC50)
From the text: (§1) CellTiter-Glo® Luminescent Cell Viability Assay (Promega) is a homogeneous method of determining the number of viable cells in culture based on quantitation of the present ATP, which indicates the presence of metabolically active cells. The homogeneous assay procedure involves addition of a single reagent (CellTiter-Glo® Reagent) directly to the cells, which leads to cell lysis and generation of a luminescent signal proportional to the amount of the ATP and the number of cells present in culture. The assay relies on the properties of a proprietary thermostable luciferase (Ultra-Glo® recombinant luciferase), which generates a luminescent signal.
(§2) K562, A549, and HCT-116 cells, in exponential growth, were incubated for 72 h with different concentrations of the inhibitors. After 72 h, a volume of CellTiter-Glo® Reagent equal to the volume of cell culture medium was added. The content was mixed for 2 min to induce cell lysis. The luminescence was recorded after further 10 min at RT in order to obtain a stable luminescent signal.
(§3) The IC50 was calculated using GraphPad Software.

A549 cells = test: Cell growth, CellTiter-Glo Luminescent Cell Viability Assay, A549; format: cell-based; conditions: Homo sapiens, 72 h incubation, read-out: A549 (antiproliferative assay IC50)
From the text: as §1, §2, §3

HCT-116 cells = test: Cell growth, CellTiter-Glo Luminescent Cell Viability Assay, HCT-116; format: cell-based; conditions: Homo sapiens, 72 h incubation, read-out: HCT116 (antiproliferative assay IC50)
From the text: as §1, §2, §3

SMILES | IC50 [1] [nM] | further results
O=C(/C=C/c1ccc2c(c1)C(=O)CC1(CCCN(Cc3ccccc3)C1)O2)NO (racemic) [Example 13, (±)-(E)-3-[1′Benzyl-4-oxo-spiro(chromane-2,3′-piperidine)-6-yl]-N-hydroxy-acrylamide] | ≤ 100 | 
O=C(/C=C/c1ccc2c(c1)/C(=N\OCc1ccccc1)CC1(CCCN(CCc3ccccc3)C1)O2)NO (centres unmarked) [Example 55, (E)-3-(4-(Benzyloxyimino)-1′-phenethylspiro[chroman-2,3′-piperidine]-6-yl)-N-hydroxyacrylamide] | ≥ 1000 | IC50 (K562 cells): ≤ 1000 nM; IC50 (A549 cells): 1000 to 3000 nM; IC50 (HCT-116 cells): ≤ 1000 nM
O=C(/C=C/c1ccc2c(c1)C(=O)CC1(CCN(CCc3ccccc3)C1)O2)NO (racemic) [Example 9, (±)-(E)-3-[1′-(2-Phenyl-ethyl)-4-oxo-spiro(chromane-2,3′-pyrrolidine)-6-yl]-N-hydroxy-acrylamide] | ≤ 100 | 
O=C(/C=C/c1ccc2c(c1)C(=O)CC1(CCCN(Cc3ccccc3)C1)O2)NO (single isomer, unassigned; (-)) [Example 17, (−)-(E)-3-[1′-Benzyl-4-oxo-spiro(chromane-2,3′-piperidine)-6-yl]-N-hydroxy-acrylamide] | ≤ 100 | 
O=C(/C=C/c1ccc2c(c1)C(=O)CC1(CCN(Cc3ccccc3)C1)O2)NO (racemic) [Example 2, (±)-(E)-3-[1′-Benzyl-4-oxo-spiro(chromane-2,3′-pyrrolidine)-6-yl]-N-hydroxy-acrylamide] | ≤ 100 | 
O=C(/C=C/c1ccc2c(c1)C(=O)NC1(CCCN(CCc3ccccc3)C1)O2)NO (racemic) [Example 43, (±)-(E)-3-{1′-(2-Phenyl-ethyl)-3,4-dihydro-4-oxo-spiro[2H-(1,3)-benzoxazine-2,3′-piperidin]-6-yl}-N-hydroxy-acrylamide] | ≤ 100 | 
O=C(/C=C/c1ccc2c(c1)C(=O)CC1(CCCN(Cc3ccccc3)C1)O2)NO (single isomer, unassigned; (+)) [Example 18, (+)-(E)-3-[1′-Benzyl-4-oxo-spiro(chromane-2,3′-piperidine)-6-yl]-N-hydroxy-acrylamide] | 100 to 1000 | 
O=C(/C=C/c1ccc2c(c1)C(=NO)CC1(CCCN(C3CCCC3)C1)O2)NO (centres unmarked) [Example 54, (E)-3-(1′-Cyclopentyl-4-(hydroxyimino)spiro[chroman-2,3′-piperidine]-6-yl)-N-hydroxyacrylamide] | ≤ 100 | 
O=C(/C=C/c1ccc2c(c1)C(=O)CC1(CN(Cc3ccccc3)C1)O2)NO [Example 31, (E)-3-[1′-Benzyl-4-oxo-spiro(chromane-2,3′-azetidine)-6-yl]-N-hydroxy-acrylamide] | ≤ 100 | 
O=C(/C=C/c1ccc2c(c1)C(=O)CC1(CCN(Cc3ccccc3)C1)O2)NO (single isomer, unassigned; (-)) [Example 3, (−)-(E)-3-[1′-Benzyl-4-oxo-spiro(chromane-2,3′-pyrrolidine)-6-yl]-N-hydroxy-acrylamide] | ≤ 100 | 
O=C(/C=C/c1ccc2c(c1)C(=O)CC1(CCCN(CCc3ccccc3)C1)O2)NO (racemic) [Example 20, (±)-(E)-3-[1′-(2-Phenyl-ethyl)-4-oxo-spiro(chromane-2,3′-piperidine)-6-yl]-N-hydroxy-acrylamide] | ≤ 100 | 
O=C(/C=C/c1ccc2c(c1)C(=O)CC1(CCCN(Cc3ccc(F)cc3)C1)O2)NO (racemic) [Example 19, (±)-(E)-3-[1′(4-Fluoro-benzyl)-4-oxo-spiro(chromane-2,3′-piperidine)-6-yl]-N-hydroxy-acrylamide] | ≤ 100 | 
O=C(/C=C/c1ccc2c(c1)C(=O)CC1(CCCN(C3CCCC3)C1)O2)NO (racemic) [Example 50, (±)-(E)-3-[1′-Cyclopentyl-4-oxo-spiro(chromane-2,3′-piperidine)-6-yl]-N-hydroxy-acrylamide] | ≤ 100 | 
O=C(/C=C/c1ccc2c(c1)C(=O)CC1(CCCN(Cc3ccccc3)CC1)O2)NO (racemic) [Example 23, (±)-(E)-3-[1′-Benzyl-4-oxo-spiro(chromane-2,4′-azepane)-6-yl]-N-hydroxy-acrylamide] | ≤ 100 | 
Cn1cc(CN2CC3(CC(=O)c4cc(/C=C/C(=O)NO)ccc4O3)C2)c2ccccc21 [Example 44, (E)-3-[1′-(1-Methyl-1H-indol-3-ylmethyl)-4-oxo-spiro(chromane-2,3′-azetidine)-6-yl]-N-hydroxy-acrylamide] | ≤ 100 | 
O=C(/C=C/c1ccc2c(c1)C(=O)CC1(CCCN(CCc3ccccc3)CC1)O2)NO (racemic) [Example 28, (±)-(E)-3-[1′(2-Phenyl-ethyl)-4-oxo-spiro(chromane-2,4′-azepane)-6-yl]-N-hydroxy-acrylamide] | ≤ 100 | 
O=C(/C=C/c1ccc2c(c1)C(=O)CC1(CN(C(=O)c3ccccc3)C1)O2)NO [Example 37, (E)-3-[1′-Benzoyl-4-oxo-spiro(chromane-2,3′-azetidine)-6-yl]-N-hydroxy-acrylamide] | ≤ 100 | 
CO/N=C1/CC2(CCCN(Cc3ccc(F)cc3)C2)Oc2ccc(/C=C/C(=O)NO)cc21 (centres unmarked) [Example 53, (E)-3-(1′-(4-Fluorobenzyl)-4-(methoxyimino)spiro[chroman-2,3′-piperidine]-6-yl)-N-hydroxyacrylamide] | ≥ 1000 | IC50 (K562 cells): 1000 to 3000 nM; IC50 (A549 cells): ≥ 3000 nM; IC50 (HCT-116 cells): 1000 to 3000 nM
Cn1cc(CN2CCC3(CC(=O)c4cc(/C=C/C(=O)NO)ccc4O3)C2)c2ccccc21 (racemic) [Example 10, (±)-(E)-3-[1′(1-Methyl-1H-indol-3-ylmethyl)-4-oxo-spiro(chromane-2,3′-pyrrolidine)-6-yl]-N-hydroxy-acrylamide] | ≤ 100 | 
O=C(/C=C/c1ccc2c(c1)C(=O)NC1(CCCN(Cc3ccccc3)C1)O2)NO (racemic) [Example 40, (±)-(E)-3-{1′-Benzyl-3,4-dihydro-4-oxo-spiro[2H-(1,3)-benzoxazine-2,3′-piperidin]-6-yl}-N-hydroxy-acrylamide] | ≤ 100 | 
